Data taken from US12024506B2, “Compounds” (Oxford University Innovation Limited, priority 2018, dated 2024).

Each compound was assayed against T1, GST-human KRas166 (G12V) GPPNHP (Homo sapiens, UniProt P01116, G12V) (assay: KRas small-molecule screening by SPR (Biacore T200)). Conditions: compound 100 uM, 5% DMSO buffer; immobilised GST-KRas166 (G12V) GPPNHP.
T1 construct: made in house; host or cells: E. coli C41(DE3)
Format: binding
Protocol: For SPR assays pGEX-KRAS(G12V) plasmid was transformed into E. coli C41(DE3). Bacterial cells were cultured at 37° C. to an OD600 of 0.6 and induced with IPTG (final 0.1 mM) at 18° C. over night. The GST fusion proteins were extracted from bacteria pellets after cell disruption in 140 mM NaCl, 2.7 mM KCl, 10 mM NaH2PO4, 1.8 mM KH2PO4, 1 mM EDTA, 2 mM MgCl2 pH 7.4 and purified by glutathione-sepharose column chromatography (GE Healthcare), eluting with 50 mM Tris-HCl pH8.0, 10 mM reduced glutathione, 1 mM DTT, 2 mM MgCl2. The eluted proteins were dialysed against 50 mM Tris-HCl pH8.0, 1 mM DTT, 2 mM MgCl2 and concentrated to 10 mg/ml using a Biomax-30 ULTRAFREE-15 centrifugal filter device (Millipore). Purified KRAS protein was loaded with GPPNHP as described elsewhere (Pacold et al., 2000). Loaded protein was then purified by gel filtration on a HiLoad Superdex-75 HR column (GE Healthcare) in 1×PBS pH7.4, 5 mM MgCl2 and concentrated for storage.
Protocol for KRas Small-Molecule Screening and Affinity Measurements by SPR
To a previously immobilized CM5 chip (GE Healthcare BR-1005-30) with anti GST antibody via amine coupling method, GST in channel 1 and GST-human KRas166 (G12V) GPPNHP in channel 2 were immobilised. GST was immobilised between 2,000 and 5,000 Response units. KRAS166 (G12V) was immobilized between 10,000 to 15,000 Response Units.
In a 96 well plate, compounds were diluted in […], 5 mM MgCl2 and 5% DMSO Buffer to a final concentration of 100 uM. DCAl was used as positive control. Experiment also included a solvent correction curve for 5% DMSO. Screening and evaluation of the protein immobilization and the compounds screening was done accordingly to the BIACORE T200 control and evaluation software.
Calculations for how many response units are required for a 1:1 ratio of compound/protein interaction are shown below. • Protein immobilisation: 10,000 RU; average fragment 300 Da in size. • Rmax=(MWA/MWL)×RL×SM • MWA is the molecular weight of the analyte in Da • MWL is the molecular weight of the ligand in Da • RL is the immobilization level in RU • SM is the molar stoichiometry (assume 1:1) • Rmax=300/47,500×10,000×1 • Rmax=63 RU. Cell Viability Assay protocols Assay 1

Compound	SPR Response Units [Response Units]
COc1cc(NC(=O)N[C@@H]2CC[C@H](N)C2)cc(-c2cccc3c2OCCO3)n1 [Example 136, 1-((1R,3S)-3-Amino-cyclopentyl)-3-[2-(2,3-dihydro-benzo[1,4]dioxin-5-yl)-6-methoxy-pyridin-4-yl]-urea]	75
COc1cc(NC(=O)[C@@H]2CCNC2)cc(-c2cccc3c2OCCO3)n1 [Example 17, (R)-Pyrrolidine-3-carboxylic acid [2-(2,3-dihydro-benzo[1,4]dioxin-5-yl)-6-methoxy-pyridin-4-yl]-amide]	84
COc1nc(-c2cccc3c2OC(CNC(=O)C2CCOCC2)CO3)ccc1Nc1cccc(CN2CCN(C(C)=O)CC2)c1 (centres unmarked) [Example 90, Tetrahydro-pyran-4-carboxylic acid (8-{5-[3-(4-acetyl-piperazin-1-ylmethyl)-phenylamino]-6-methoxy-pyridin-2-yl}-2,3-dihydro-benzo[1,4]dioxin-2-ylmethyl)-amide]	140
CN(C)CCOc1ccc(C(=O)NCC2COc3cccc(-c4ccccn4)c3O2)cc1 (centres unmarked) [Example 104, 4-(2-Dimethylamino-ethoxy)-N-(8-pyridin-2-yl-2,3-dihydro-benzo[1,4]dioxin-2-ylmethyl)-benzamide]	35
COc1nc(-c2cccc3c2OCCO3)ccc1Nc1ccc(C(=O)NCc2cccc(C)n2)cc1 [Example 174, 4-[6-(2,3-Dihydro-benzo[1,4]dioxin-5-yl)-2-methoxy-pyridin-3-ylamino]-N-(6-methyl-pyridin-2-ylmethyl)-benzamide]	43
COc1nc(-c2cccc3c2O[C@H](CNC(=O)c2ccc(CN4CCN(C)CC4)o2)CO3)ccc1N [Example 87, 5-(4-Methyl-piperazin-1-ylmethyl)-furan-2-carboxylic acid [(R)-8-(5-amino-6-methoxy-pyridin-2-yl)-2,3-dihydro-benzo[1,4]dioxin-2-ylmethyl]-amide]	56
O=C(NCC1COc2cccc(-c3ccc(OCCN4CCOCC4)cn3)c2O1)C1CCOCC1 (centres unmarked) [Example 111, Tetrahydro-pyran-4-carboxylic acid {8-[5-(2-morpholin-4-yl-ethoxy)-pyridin-2-yl]-2,3-dihydro-benzo[1,4]dioxin-2-ylnethyl}-amide]	29
COc1cccc(-c2cccc3c2OC(CNCC2CCN(C(=O)C4CCOCC4)CC2)CO3)n1 (centres unmarked) [Example 30, [4-({[8-(6-Methoxy-pyridin-2-yl)-2,3-dihydro-benzo[1,4]dioxin-2-ylmethyl]-amino}-methyl)-piperidin-1-yl]-(tetrahydro-pyran-4-yl)-methanone]	42
COc1cc(NC(=O)N[C@@H]2CC[C@H](N)C2)cc(-c2cccc3c2OC(CNC(=O)C2CCOCC2)CO3)n1 (some centres unmarked) [Example 135]	57
CN1CCN(Cc2ccc(C(=O)NCC3COc4cccc(-c5cn(C)cn5)c4O3)o2)CC1 (centres unmarked) [Example 137, 5-(4-Methyl-piperazin-1-ylmethyl)-furan-2-carboxylic acid [8-(1-methyl-1H-imidazol-4-yl)-2,3-dihydro-benzo[1,4]dioxin-2-ylmethyl]-amide]	50
CN(C)Cc1cccc(Nc2ccc(-c3cccc4c3OC(CNC(=O)C3CCOCC3)CO4)nc2)c1 (centres unmarked) [Example 93]	39
COc1cc(NC(=O)N(C)C2CCN(C)CC2)cc(-c2cccc3c2OCCO3)n1 [Example 22, 3-[2-(2,3-Dihydro-benzo[1,4]dioxin-5-yl)-6-methoxy-pyridin-4-yl]-1-methyl-1-(1-methyl-piperidin-4-yl)-urea]	55
CN(C)Cc1cccc(Nc2ccnc(-c3cccc4c3OC(CNC(=O)C3CCOCC3)CO4)c2)c1 (centres unmarked) [Example 140, tetrahydro-pyran-4-carboxylic acid {8-[4-(3-dimethylaminomethyl-phenylamino)-pyridin-2-yl]-2,3-dihydro-benzo[1,4]dioxin-2-ylmethyl}-amide]	32
c1cc2c(c(-c3ccc(Nc4ccc(CNCC5COCCN5)cc4)nn3)c1)OCCO2 (centres unmarked) [Example 154, [6-(2,3-Dihydro-benzo[1,4]dioxin-5-yl)-pyridazin-3-yl]-(4-{[(morpholin-3-ylmethyl)-amino]-methyl}-phenyl)-amine]	59
COc1cc(NC(=O)C2CCNCC2)cc(-c2cccc3c2OCCO3)n1 [Example 19, Piperidine-4-carboxylic acid [2-(2,3-dihydro-benzo[1,4]dioxin-5-yl)-6-methoxy-pyridin-4-yl]-amide]	100
CN(C)Cc1cccc(C(=O)N2CCN(c3cccc4c3OCCO4)CC2)c1 [Example 156, [4-(2,3-Dihydro-benzo[1,4]dioxin-5-yl)-piperazin-1-yl]-(3-dimethylaminomethyl-phenyl)-methanone]	5
COc1cc(NC(=O)[C@H]2CNCCO2)cc(-c2cccc3c2OCCO3)n1 [Example 18, (R)-Morpholine-2-carboxylic acid [2-(2,3-dihydro-benzo[1,4]dioxin-5-yl)-6-methoxy-pyridin-4-yl]-amide]	71
CN1CCC(NC(=O)c2ccc(Nc3ccc(-c4cccc5c4OC(CNC(=O)C4CCOCC4)CO5)nc3)cc2)CC1 (centres unmarked) [Example 91]	66
COc1cccc(-c2cccc3c2OC(CO)CO3)n1 (centres unmarked) [Example 2, [8-(6-Methoxy-pyridin-2-yl)-2,3-dihydro-benzo[1,4]dioxin-2-yl]-methanol]	17
CN(C)CCOc1ccc(C(=O)NCC2COc3cccc(-c4cc(N5CCOCC5)ccn4)c3O2)cc1 (centres unmarked) [Example 102, 4-(2-Dimethylamino-ethoxy)-N-[8-(4-morpholin-4-yl-pyridin-2-yl)-2,3-dihydro-benzo[1,4]dioxin-2-ylmethyl]-benzamide]	126
COc1nc(-c2cccc3c2OCCO3)ccc1Nc1ccccc1C(=O)NCC1CCN(C(=O)OC(C)(C)C)CC1 [Example 152, 4-({2-[6-(2,3-dihydro-benzo[1,4]dioxin-5-yl)-2-methoxy-pyridin-3-ylamino]-benzoylamino}-methyl)-piperidine-1-carboxylic acid tert-butyl ester]	36
COc1nc(-c2cccc3c2OC(CNC(=O)C2CCOCC2)CO3)ccc1NC(=O)N[C@H]1CC[C@@H](N)C1 (stereo partly drawn) [Example 141, tetrahydro-pyran-4-carboxylic acid (8-{5-[3-((1S,3R)-3-amino-cyclopentyl)-ureido]-6-methoxy-pyridin-2-yl}-2,3-dihydro-benzo[1,4]dioxin-2-ylmethyl)-amide]	80
c1ccc(CN2CCN(c3cccc4c3OCCO4)CC2)cc1 [Example 71, 1-Benzyl-4-(2,3-dihydro-benzo[1,4]dioxin-5-yl)-piperazine]	14
CN1CCN(Cc2ccc(C(=O)NCC3COc4cccc(-c5ccc(OCCN6CCOCC6)cn5)c4O3)o2)CC1 (centres unmarked) [Example 107, 5-(4-methyl-piperazin-1-ylmethyl)-furan-2-carboxylic acid {8-[5-(2-morpholin-4-yl-ethoxy)-pyridin-2-yl]-2,3-dihydro-benzo[1,4]dioxin-2-ylmethyl}-amide]	9
COc1nc(-c2cccc3c2OCCO3)ccc1NC(=O)CC1CCN(C)CC1 [Example 113, N-[6-(2,3-Dihydro-benzo[1,4]dioxin-5-yl)-2-methoxy-pyridin-3-yl]-2-(1-methyl-piperidin-4-yl)-acetamide]	30
COc1nc(-c2cccc3c2OC(CNC(=O)C2CCOCC2)CO3)ccc1NC(=O)CC1CCN(C)CC1 (centres unmarked) [Example 82, Tetrahydro-pyran-4-carboxylic acid (8-{6-methoxy-5-[2-(1-methyl-piperidin-4-yl)-acetylamino]-pyridin-2-yl}-2,3-dihydro-benzo[1,4]dioxin-2-ylmethyl)-amide]	12
